Like-named read-outs stand apart in the source and are kept apart here.
Key:
laser induced CNV [1] = assay: Inhibition of laser induced CNV by periocular rapamycin (Example 1); format: in vivo; conditions: mice; daily periocular injections of 5 micrograms in corn oil, begun two days before laser rupture; two weeks after laser; SD 0.00197
Protocol: (§1) CNV may be induced by rupturing Bruch's membrane with laser. Fifteen mice were given daily periocular injections of 5 micrograms of rapamycin in corn oil vehicle in one eye. After two days of treatment, Bruch's membrane was ruptured by laser at three sites in each eye. The fellow eye served as control and was treated with periocular injections of corn oil only. Two weeks after laser rupture, 10 mice were perfused with fluorescein-labeled dextran and CNV areas were measured in each eye on choroidal flat mounts. The remaining mice had retinas and RPE/choroid dissected and stored at −70° C. for tissue therapeutic agents level measurement.

[2] = Retinal tissue and blood levels of rapamycin after periocular injection (HPLC/MS); format: in vivo; conditions: mice
Protocol: as §1

laser induced CNV [3] = assay: Reversal of laser induced CNV by periocular rapamycin (Example 2); format: in vivo; conditions: mice; daily periocular 5 μg in 5 μl corn oil started one week after laser, for one week; SD 0.0053
Protocol: Fifteen mice had Bruch's membrane ruptured with laser photocoagulation at 3 locations in each eye. After one week, 5 mice were perfused with fluorescein-labeled dextran and the baseline area of CNV was measured in each eye. At that point, the remaining mice were started on daily periocular injections of 5 μl of corn oil containing 5 μg of rapamycin in one eye and corn oil alone in the fellow eye. After one more week, the mice were perfused with fluorescein-labeled dextran and CNV areas were measured in each eye on choroidal flat mounts. The corn oil solution used is approximately a saturated solution. It is expected that lower doses will be used to deliver therapeutically effective amounts of rapamycin.
Baseline lesion CNV area was 0.0105 mm^2 with a standard deviation of 0.0037.

[4] = Two chamber Ussing type permeability apparatus, transscleral rapamycin delivery; format: in vitro ADME, human; conditions: human
Protocol: (§2) Prior to testing of sclera, loss of therapeutic agent to the glass walls of the experimental apparatus was evaluated. For the evaluation of loss of drug to the experimental apparatus, the uveal and orbital chambers were exposed to a 2 μg/mL rapamycin solution in balanced salt solution.
(§3) A 7 mm disk of fresh donor human sclera was used to separate the two chambers of the Ussing permeability apparatus. The two sides of the sclera were denoted “orbital” to represent the outer surface and “uveal” to represent the internal surface. […] Thus, in order to grossly replicate a scleral depot delivery system, the hydrophobic therapeutic agent solvents were diluted to 5% concentration in balanced salt solution (BSS) with dissolved rapamycin to form a roughly 100 μg per ml orbital chamber solution. In this example, the chamber on the orbital surface side contained a reservoir of 200 μl of rapamycin dissolved in 5% DMSO in BSS at an expected concentration of 100 μg per milliliter. The 500 μl uveal chamber was continually perfused at 0.0075 milliliter per minute and samples were collected by a fractionater in Eppendorf tubes every 4 hours. The experiment was run for 36 hours.
(§4) At the peak concentrations in the uveal chamber (250 ng/ml), rapamycin will fully dissolve in vitreous. Because the amount of therapeutic agent in the orbital chamber was declining, the steady state was estimated by the highest flux. […] A permeability coefficient (K) was calculated as:
(§5) [formula] ΔC represents the increase in concentration the compound in the uveal chamber (0.250 micrograms/ml) that occurs over the interval t, in seconds ([…]). V is the chamber volume (1.8 milliliter). A represents the exposed area of the tissue (0.385 cm^2). C0 is the initial concentration of the compound in the orbital chamber (92 microgram/ml). Calculated in this manner, the permeability coefficient, K, has the dimensions of cm/s. KTRANS thus expresses the rate at which a given solute traverses the tissue. (Advanced Therapeutic agent Delivery Reviews 52 (2001) 37-48 by Dale Geroski and Hank Edelhauser, which is incorporated herein by reference in its entirety). For this experiment KTRANS was roughly 8.82×10^−6 cm/sec, which was on the order of predictions based on MW. Comparatively, when evaluating the KTRANS of dexamethasone, which is smaller than rapamycin, and adjusting for a lower solubility, the figures for rapamycin are also in the appropriate predicted ranges. It is expected that as the external concentration of rapamycin is raised, the flux will increase. Under the ex-vivo conditions of this example, rapamycin can be delivered in the single digit micrograms per day to the vitreous. Such rates are consistent with therapeutic local tissue levels and support that rapamycin is a viable therapeutic agent for transscleral delivery to the posterior segment for vitreoretinal disease. Transscleral Rapamycin Delivery—Methanol Solution
(§6) The above procedure was followed with the exception that rapamycin was dissolved in 5% methanol in BSS. The time profile of the concentration of rapamycin in the uveal chamber is depicted in FIG. 3 (circles). The peak concentration in the uveal chamber was 271 ng/ml at t=12 to 16 hours. The total amount of rapamycin accumulated on the uveal side of the sclera is depicted as function of time in FIG. 4 (squares). The total rapamycin recovered from the uveal chamber was 3.44 micrograms in 36 hours.

human sclera = assay: as above; format: in vitro ADME; conditions: for rapamycin held by the sclera at the conclusion of the experiment: 36 hours; for total rapamycin recovered from the uveal chamber: in 36 hours
Protocol: as §2, §3, §4, §5, §6

Solubility of rapamycin = format: physicochemical

rapamycin blood levels ([2]; periocular 5 μg per day): 5.57 nanograms per milligram blood | retinal tissue levels of rapamycin, treated eyes ([2]; periocular 5 μg per day, HPLC/MS): 25 picograms per milligram tissue | retinal tissue levels of rapamycin, fellow control eyes ([2]; untreated fellow eye of animals given periocular 5 μg per day in the other eye): 7 picograms per milligram tissue | Papp at 36 h, 92 μg/mL ([4]; 5% DMSO in BSS, read-out: permeability coefficient KTRANS): ~8.82 ×10⁻⁶ cm/s | Papp at 36 h, 100 μg/mL ([4]; 5% methanol in BSS, read-out: permeability coefficient KTRANS): 9.56 ×10⁻⁶ cm/s | Papp at 36 h, 100 μg/mL ([4]; ex-vivo human scleral tissue, order of magnitude, summary of Example 3, read-out: permeability of human sclera to rapamycin): ~10 ×10⁻⁶ cm/s | time of peak concentration in the uveal chamber (human sclera; 5% DMSO in BSS): 8 to 12 h | peak concentration in the uveal chamber (human sclera; 5% DMSO in BSS, about 100 μg per ml orbital chamber): 250 ng/mL | rapamycin held by the sclera at the conclusion of the experiment (human sclera; 5% DMSO in BSS): 0.57 micrograms | total rapamycin recovered from the uveal chamber (human sclera; 5% DMSO in BSS): 2.67 micrograms | peak concentration in the uveal chamber (human sclera; 5% methanol in BSS): 271 ng/mL | time of peak concentration in the uveal chamber (human sclera; 5% methanol in BSS): 12 to 16 h | rapamycin held by the sclera at the conclusion of the experiment (human sclera; 5% methanol in BSS): 0.41 micrograms | total rapamycin recovered from the uveal chamber (human sclera; 5% methanol in BSS): 3.44 micrograms | solubility in aqueous solutions (Solubility of rapamycin): poorly soluble
Structure (SMILES): CO[C@H]1C[C@@H]2CC[C@@H](C)[C@@](O)(O2)C(=O)C(=O)N2CCCC[C@H]2C(=O)O[C@H]([C@H](C)C[C@@H]2CC[C@@H](O)[C@H](OC)C2)CC(=O)[C@H](C)/C=C(\C)[C@@H](O)[C@@H](OC)C(=O)[C@H](C)C[C@H](C)/C=C/C=C/C=C/1C [rapamycin]
mean CNV area, rapamycin treated eyes (laser induced CNV [1]): 0.00381 mm^2 | CNV area, treated eyes (laser induced CNV [3]): 0.00458 mm^2 | highest flux (human sclera; 5% DMSO in BSS, taken as estimate of steady state): 9.35 micrograms per square centimeter per day
